Measurements: patent publication US9993436B2, “Porous hollow fiber anti-solvent crystallization-based continuous method of polymer coating on submicron and nanoparticles” (New Jersey Institute of Technology, priority 2014, dated 2018)
≈ marks a conversion by molar mass, not a printed value.

Experiments:
[1] = Particle size distribution by laser diffraction particle size analyzer; format: physicochemical
Method: A laser diffraction particle size analyzer (LS230, Beckman Coulter, Brea, Calif.) was used to identify the extent of particle agglomeration. An aqueous micron-size suspension of the particle sample was prepared after 30 s of sonication to break the soft bonding between particles. After that a few drops of the suspension were introduced in the inlet of the instrument for analysis.
Residence time plays an important role in the PHFAC process since precipitation of both the polymer and the drug can be affected by the variation of residence time in the shell side of the module. Residence time can be simply altered by changing the shell-side feed solution flow rate. To identify the influence of the feed solution flow rate on the particle size distribution (PSD) of GF crystals, the solution containing the dissolved drug without any polymer was passed through the PHFAC module at different rates. The particle size distribution will be affected by the extent of supersaturation created and the rate at which supersaturation is created. Both are influenced by the rate at which the anti-solvent is introduced from the tube side to the shell side for a given feed solution flow rate.
Since one of the objectives of the study is to understand the impact of this novel PHFAC coating technique on the synthesized drug particles, the as-received uncoated GF particles and the Eudragit-coated GF particles obtained from the PHFAC were selected for particle size distribution analysis. A suspension of the samples in water was carefully dropped into the inlet of the laser diffraction particle size analyzer. The median size of the uncoated GF sample (11.6 μm) was close to the manufacturer's specification (10 μm). After polymer coating, the median size of the coated drug particles increased to 19.2 μm. One reason for the median size increase is obviously due to the coating which increases the particle size. Another reason is that the coating of GF by the polymer brings in a certain amount of agglomeration. Attachment of neighboring coated drug particles will take place due to the sticking tendency of the polymer-formed liquid bridges.
A laser diffraction particle size analyzer (LS 230, Beckman Coulter, Brea, Calif.) was used to determine the particle size distribution. An aqueous particle suspension of the particle sample was prepared by introducing the dry sample powder into DI water and sonicating it for about 30 seconds to break the soft bonding.

[2] = Dissolution test, USP II paddle method, UV at 296 nm; format: physicochemical; conditions: up to 50 minutes; 0.27% SDS solution 900 mL, 37° C., paddle 50 rpm; FIG. 8
Method: Dissolution tests for the uncoated and coated Griseofulvin particles were determined via a Distek dissolution tester (North Brunswick, N.J.). According to the USP II paddle method, 0.27% of SDS solution with 900 mL volume was added into the vessel as a buffer solution. Temperature of the medium was maintained at 37° C. and a paddle stirring speed of 50 rpm was used. The sample used was equivalent to a dose of 35 mg of GF, and dropped into a dissolution vessel containing the buffer solution. Samples having a volume of 6 mL were taken out at 1, 3, 5, 10, 20, 30, 40, 50 and 80 min and immediately analyzed by UV spectroscopy (52100UV+, Cole-Parmer, Vernon Hills, Ill.) at a wavelength of 296 nm. As a blank benchmark for the test, a 0.27% SDS buffer solution was measured first.
To illustrate the advantages of a coated drug for controlled release, dissolution tests were performed on three samples: as-received drug, uncoated drug, and polymer-coated drug.

physchem = experiment: physchem
Text: Eudragit RL 100 (Mw, 150,000; a copolymer of methyl methacrylate, ethyl acrylate and methacrylic acid ester) from Evonik-Degussa (Parsippany, N.J.) was employed as the coating polymer. Drug particles of Griseofulvin (GF) from Letco (Decatur, Ala.) were used without further treatment. […] Sodium dodecyl sulfate (SDS) was used as a surfactant (Sigma-Aldrich). Deionized water was used as the tube side anti-solvent liquid. The Nylon 6 hollow fibers were obtained from ENKA America Inc. (Asheville, N.C.).

[3] = cited from earlier work
[4] = drug crystals from PHFAC module without any polymer in the feed solution, various shell/tube side flow rates

| Structure (SMILES) | Median size [1, 4] | d10 [1, 4] | d90 [1, 4] | dissolution profile (comparison of curves) [2] | solubility in water (physchem) | solubility (physchem; organic solvent or mixture) | Median size ([1]; suspension in water, FIG. 4) | median size, manufacturer's specification [3] |
| --- | --- | --- | --- | --- | --- | --- | --- | --- |
| COC1=CC(=O)C[C@@H](C)[C@]12Oc1c(Cl)c(OC)cc(OC)c1C2=O [X2, Griseofulvin] | 11.83 μm | 2.117 μm | 30.30 μm |  |  |  |  |  |
| COC1=CC(=O)C[C@@H](C)[C@]12Oc1c(Cl)c(OC)cc(OC)c1C2=O [X0, Griseofulvin] | 1.617 μm | 1.001 μm | 2.219 μm |  |  |  |  |  |
| COC1=CC(=O)C[C@@H](C)[C@]12Oc1c(Cl)c(OC)cc(OC)c1C2=O [X1, Griseofulvin] | 7.333 μm | 4.977 μm | 15.29 μm |  |  |  |  |  |
| COC1=CC(=O)C[C@@H](C)[C@]12Oc1c(Cl)c(OC)cc(OC)c1C2=O [GF, Griseofulvin] |  |  |  |  | practically insoluble | 116 mM (≈ 40.9 mg/mL) | 11.6 μm | 10 μm |

The next lines start with results.

| Median size [1, 4] | d10 [1, 4] | d90 [1, 4] | dissolution profile (comparison of curves) [2] | solubility in water (physchem) | solubility (physchem; organic solvent or mixture) | Median size ([1]; suspension in water, FIG. 4) | Structure (SMILES) | median size, manufacturer's specification [3] |
| --- | --- | --- | --- | --- | --- | --- | --- | --- |
| 11.76 μm | 2.939 μm | 26.62 μm |  |  |  |  | COC1=CC(=O)C[C@@H](C)[C@]12Oc1c(Cl)c(OC)cc(OC)c1C2=O [X3, Griseofulvin] |  |
|  |  |  | essentially similar dissolution curves |  |  |  | COC1=CC(=O)C[C@@H](C)[C@]12Oc1c(Cl)c(OC)cc(OC)c1C2=O [uncoated GF, Griseofulvin] |  |
